PubChem BioAssay (NCI)
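All cell lines were grown in 96-well plates and treated with compound for 48 hours. At the TGI there is no net growth.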

Columns and labels:
Assay in all cases: NCI-60 cell line screen, 48 h
786-0 renal = system: 786-0 renal
A549 NSCLC = system: A549 NSCLC
ACHN renal = system: ACHN renal
BT-549 breast = system: BT-549 breast
CAKI-1 renal = system: CAKI-1 renal
CCRF-CEM leukemia = system: CCRF-CEM leukemia
COLO 205 colon = system: COLO 205 colon
DU-145 prostate = system: DU-145 prostate
EKVX NSCLC = system: EKVX NSCLC
HCC-2998 colon = system: HCC-2998 colon
HCT-116 colon = system: HCT-116 colon
HCT-15 colon = system: HCT-15 colon
HL-60(TB) leukemia = system: HL-60(TB) leukemia
HOP-62 NSCLC = system: HOP-62 NSCLC
HOP-92 NSCLC = system: HOP-92 NSCLC
HS 578T breast = system: HS 578T breast
HT29 colon = system: HT29 colon
IGROV1 ovarian = system: IGROV1 ovarian
K-562 leukemia = system: K-562 leukemia
LOX IMVI melanoma = system: LOX IMVI melanoma
M14 melanoma = system: M14 melanoma
MALME-3M melanoma = system: MALME-3M melanoma
MCF7 breast = system: MCF7 breast
MDA-MB-231 breast = system: MDA-MB-231 breast
MDA-MB-435 = system: MDA-MB-435
MDA-N = system: MDA-N
MOLT-4 leukemia = system: MOLT-4 leukemia
NCI-H226 lung = system: NCI-H226 lung
NCI-H23 lung = system: NCI-H23 lung
NCI-H460 lung = system: NCI-H460 lung
NCI-H522 lung = system: NCI-H522 lung
NCI/ADR-RES ovarian = system: NCI/ADR-RES ovarian
OVCAR-3 ovarian = system: OVCAR-3 ovarian
OVCAR-4 ovarian = system: OVCAR-4 ovarian
OVCAR-5 ovarian = system: OVCAR-5 ovarian
OVCAR-8 ovarian = system: OVCAR-8 ovarian
PC-3 prostate = system: PC-3 prostate
RPMI-8226 leukemia = system: RPMI-8226 leukemia
RXF 393 renal = system: RXF 393 renal
SF-268 CNS = system: SF-268 CNS
SF-295 CNS = system: SF-295 CNS
SF-539 CNS = system: SF-539 CNS
SK-MEL-2 melanoma = system: SK-MEL-2 melanoma
SK-MEL-28 melanoma = system: SK-MEL-28 melanoma
SK-MEL-5 melanoma = system: SK-MEL-5 melanoma
SK-OV-3 ovarian = system: SK-OV-3 ovarian
SN12C renal = system: SN12C renal
SNB-19 CNS = system: SNB-19 CNS
SNB-75 CNS = system: SNB-75 CNS
SR leukemia = system: SR leukemia
SW-620 colon = system: SW-620 colon
T-47D breast = system: T-47D breast
TK-10 renal = system: TK-10 renal
UACC-257 melanoma = system: UACC-257 melanoma
UO-31 renal = system: UO-31 renal
KM12 colon = system: KM12 colon
U251 CNS = system: U251 CNS
UACC-62 melanoma = system: UACC-62 melanoma

Measured: TGI

CC(=O)N1C(Nc2ccccn2)CCN1c1ccccc1 (configuration not stated)
> 10 µM: 786-0 renal | A549 NSCLC | ACHN renal | BT-549 breast | CAKI-1 renal | CCRF-CEM leukemia | COLO 205 colon | DU-145 prostate | EKVX NSCLC | HCC-2998 colon | HCT-116 colon | HCT-15 colon | HL-60(TB) leukemia | HOP-62 NSCLC | HOP-92 NSCLC | HS 578T breast | HT29 colon | IGROV1 ovarian | K-562 leukemia | LOX IMVI melanoma | M14 melanoma | MALME-3M melanoma | MCF7 breast | MDA-MB-231 breast | MDA-MB-435 | MDA-N | MOLT-4 leukemia | NCI-H226 lung | NCI-H23 lung | NCI-H460 lung | NCI-H522 lung | NCI/ADR-RES ovarian | OVCAR-3 ovarian | OVCAR-4 ovarian | OVCAR-5 ovarian | OVCAR-8 ovarian | PC-3 prostate | RPMI-8226 leukemia | RXF 393 renal | SF-268 CNS | SF-295 CNS | SF-539 CNS | SK-MEL-2 melanoma | SK-MEL-28 melanoma | SK-MEL-5 melanoma | SK-OV-3 ovarian | SN12C renal | SNB-19 CNS | SNB-75 CNS | SR leukemia | SW-620 colon | T-47D breast | TK-10 renal | UACC-257 melanoma | UO-31 renal

Cc1ccc(C2=Nc3cccc4cccc(c34)N2)cc1
> 100 µM: 786-0 renal | A549 NSCLC | ACHN renal | BT-549 breast | CAKI-1 renal | CCRF-CEM leukemia | COLO 205 colon | DU-145 prostate | EKVX NSCLC | HCC-2998 colon | HCT-116 colon | HCT-15 colon | HL-60(TB) leukemia | HOP-62 NSCLC | HOP-92 NSCLC | HS 578T breast | HT29 colon | IGROV1 ovarian | K-562 leukemia | KM12 colon | LOX IMVI melanoma | M14 melanoma | MALME-3M melanoma | MCF7 breast | MDA-MB-231 breast | MDA-MB-435 | MDA-N | MOLT-4 leukemia | NCI-H226 lung | NCI-H23 lung | NCI-H460 lung | NCI-H522 lung | NCI/ADR-RES ovarian | OVCAR-3 ovarian | OVCAR-4 ovarian | OVCAR-8 ovarian | PC-3 prostate | RPMI-8226 leukemia | RXF 393 renal | SF-268 CNS | SF-295 CNS | SF-539 CNS | SK-MEL-2 melanoma | SK-MEL-28 melanoma | SK-MEL-5 melanoma | SK-OV-3 ovarian | SN12C renal | SNB-19 CNS | SNB-75 CNS | SR leukemia | SW-620 colon | T-47D breast | TK-10 renal | U251 CNS | UACC-257 melanoma | UACC-62 melanoma | UO-31 renal
